Laboratory results published in PubChem BioAssay AID330 (DTP/NCI, 2004).
“And” between values parts separate entries of the source, which are not always exact repeats. Equal entries are not always repeated. Toxic doses and inconclusive results are not listed. Peptide text beside a SMILES is read from it. * marks the point of attachment. OtBu = CC(C)(C)O*

System: P388 leukemia ip, CD2F1 mice, survival T/C
Experiment: NCI In Vivo Anticancer Drug Screen. Data for tumor model P388 Leukemia (intraperitoneal) in CD2F1 (CDF1) mice
Conditions: endpoint: median survival time, higher = longer survival
Outline: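 Mice carrying the transplanted tumor received test compound or vehicle. Survival was recorded in each group, and the value is the treated-group measurement divided by that of the vehicle-treated control group.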

[1] = dose: 50.0 mg/kg/injection, schedule: Q01DX005 (ip), vehicle: Klucel (hydroxypropylcellulose) (HPC)
[2] = dose: 100.0 mg/kg/injection, schedule: Q01DX005 (ip), vehicle: Klucel (hydroxypropylcellulose) (HPC)
[3] = dose: 200.0 mg/kg/injection, schedule: Q01DX005 (ip), vehicle: Klucel (hydroxypropylcellulose) (HPC)
[4] = dose: 50.0 mg/kg/injection, schedule: Q01DX005 (ip), vehicle: saline with Tween-80
[5] = dose: 100.0 mg/kg/injection, schedule: Q01DX005 (ip), vehicle: saline with Tween-80
[6] = dose: 200.0 mg/kg/injection, schedule: Q01DX005 (ip), vehicle: saline with Tween-80
[7] = dose: 60.0 mg/kg/injection, schedule: Q01DX005 (ip), vehicle: saline with Tween-80
[8] = dose: 120.0 mg/kg/injection, schedule: Q01DX005 (ip), vehicle: saline with Tween-80
[9] = dose: 50.0 mg/kg/injection, schedule: Q01DX009 (ip), vehicle: saline
[10] = dose: 240.0 mg/kg/injection, schedule: Q01DX005 (ip), vehicle: saline with Tween-80
[11] = dose: 100.0 mg/kg/injection, schedule: Q04DX003 (ip), vehicle: saline with Tween-80
[12] = dose: 200.0 mg/kg/injection, schedule: Q04DX003 (ip), vehicle: saline with Tween-80

CC(C)CC(NC(=O)C1CCCN1)C(=O)NC(CC(C)C)C(=O)OC(C)(C)C (stereo not drawn) (H-Pro-Leu-Leu-OtBu; configuration not given here)
T/C [1]: 102 % of control
T/C [2]: 99 % of control
T/C [3]: 96 % of control

Nc1nc(CON2C(=O)c3ccccc3C2=O)cs1
T/C [1]: 97 % of control
T/C [2]: 99 % of control
T/C [3]: 103 % of control

O=C1S/C(=C2\C(=O)N(CN3CCOCC3)c3ccccc32)C(=O)N1CN1CCOCC1
T/C (dose: 60.0 mg/kg/injection, schedule: Q01DX005 (ip), vehicle: Klucel (hydroxypropylcellulose) (HPC)): 100 % of control
T/C (dose: 120.0 mg/kg/injection, schedule: Q01DX005 (ip), vehicle: Klucel (hydroxypropylcellulose) (HPC)): 108 % of control
T/C (dose: 240.0 mg/kg/injection, schedule: Q01DX005 (ip), vehicle: Klucel (hydroxypropylcellulose) (HPC)): 108 % of control

CCCCOC(=O)CC(C(=O)OCCCC)C(C(=O)OCCCC)P(=O)(OCCCC)OCCCC (stereo unspecified)
T/C [4]: 99 % of control
T/C [5]: 100 % of control
T/C [6]: 98 % of control

CC1(C)CC(=O)c2c(ncc3cc4c(cc23)OCO4)C1
T/C (dose: 100.0 mg/kg/injection, schedule: Q04DX002 (ip), vehicle: saline with Tween-80): 110 % of control
T/C (dose: 200.0 mg/kg/injection, schedule: Q04DX002 (ip), vehicle: saline with Tween-80): 118 % of control

O=C1c2ccccc2C(=O)c2c(Cl)ccc(O)c21
T/C (dose: 50.0 mg/kg/injection, schedule: Q01DX009 (ip), vehicle: saline with Tween-80): 98 % of control and 94 % of control
T/C (dose: 100.0 mg/kg/injection, schedule: Q01DX009 (ip), vehicle: saline with Tween-80): 99 % of control and 92 % of control
T/C (dose: 200.0 mg/kg/injection, schedule: Q01DX009 (ip), vehicle: saline with Tween-80): 104 % of control and 112 % of control
T/C (dose: 400.0 mg/kg/injection, schedule: Q01DX009 (ip), vehicle: saline with Tween-80): 111 % of control and 112 % of control

O=C(O)/C(Cl)=C(\Cl)C(=O)Nc1c(Cl)cccc1Cl
T/C [7]: 101 % of control
T/C [8]: 100 % of control

OC(C[n+]1ccccc1)c1ccccc1 (stereo unspecified)
T/C (dose: 6.25 mg/kg/injection, schedule: Q01DX009 (ip), vehicle: saline): 105 % of control
T/C (dose: 12.5 mg/kg/injection, schedule: Q01DX009 (ip), vehicle: saline): 100 % of control
T/C (dose: 25.0 mg/kg/injection, schedule: Q01DX009 (ip), vehicle: saline): 109 % of control
T/C [9]: 100 % of control

COc1cccc2c1C(=O)c1c(O)c3c(c(O)c1C2=O)CC(O)(/C(C)=N/NC(=O)C(=O)N/N=C(\C)C1(O)Cc2c(O)c4c(c(O)c2C(OC2CC(N)C(O)C(C)O2)C1)C(=O)c1c(OC)cccc1C4=O)CC3OC1CC(N)C(O)C(C)O1 (stereo unspecified)
T/C (dose: 1.56 mg/kg/injection, schedule: Q01DX009 (ip), vehicle: water): 163 % of control and 166 % of control
T/C (dose: 3.13 mg/kg/injection, schedule: Q01DX009 (ip), vehicle: water): 180 % of control and 182 % of control
T/C (dose: 6.25 mg/kg/injection, schedule: Q01DX009 (ip), vehicle: water): 184 % of control and 219 % of control
T/C (dose: 12.5 mg/kg/injection, schedule: Q01DX009 (ip), vehicle: water): 88 % of control and 94 % of control

O=C1OC(OCC#CCOC2OC(=O)C(Cl)=C2Cl)C(Cl)=C1Cl (stereo unspecified)
T/C (dose: 15.0 mg/kg/injection, schedule: Q01DX005 (ip), vehicle: saline with Tween-80): 112 % of control
T/C (dose: 30.0 mg/kg/injection, schedule: Q01DX005 (ip), vehicle: saline with Tween-80): 105 % of control
T/C [7]: 115 % of control and 93 % of control

O=C1CSC(c2ccccc2Cl)N1c1nncs1 (stereo unspecified)
T/C [7]: 103 % of control
T/C [8]: 98 % of control
T/C [10]: 104 % of control

CC(C)CC(NC(=O)C(CCCCN)N(C(=O)OCc1ccccc1)C(=O)OCc1ccccc1)C(=O)O (stereo unspecified)
T/C [4]: 99 % of control
T/C [5]: 99 % of control
T/C [6]: 90 % of control

O=C1/C(=C\c2ccccc2O)Cc2ccccc21
T/C [1]: 107 % of control
T/C [2]: 103 % of control
T/C [3]: 91 % of control

CC(=O)Nc1ccc(C(=O)O)c(O)c1.CC(=O)Nc1ccc(C(=O)O)c(O)c1.[Cu]
T/C (dose: 6.25 mg/kg/injection, schedule: Q01DX001 (ip), vehicle: saline): 98 % of control
T/C (dose: 12.5 mg/kg/injection, schedule: Q01DX001 (ip), vehicle: saline): 97 % of control
T/C (dose: 25.0 mg/kg/injection, schedule: Q01DX001 (ip), vehicle: saline): 94 % of control

CC1C/C=C\COC(=O)CC(C)(C)CC1=O (stereo unspecified)
T/C (dose: 100.0 mg/kg/injection, schedule: Q04DX003 (ip), vehicle: saline): 99 % of control
T/C (dose: 200.0 mg/kg/injection, schedule: Q04DX003 (ip), vehicle: saline): 99 % of control
T/C (dose: 400.0 mg/kg/injection, schedule: Q04DX003 (ip), vehicle: saline): 95 % of control

COc1ccccc1-c1cn(O)c2nc(=N)nc(N)c-2n1
T/C (dose: 50.0 mg/kg/injection, schedule: Q04DX003 (ip), vehicle: saline with Tween-80): 91 % of control
T/C [11]: 89 % of control
T/C [12]: 99 % of control
T/C (dose: 400.0 mg/kg/injection, schedule: Q04DX003 (ip), vehicle: saline with Tween-80): 107 % of control

Cc1cc2c(cc1C)NC(C)CC(=O)N2 (stereo unspecified)
T/C [11]: 109 % of control
T/C [12]: 95 % of control

CCCCCCCC(=O)Nc1ccccc1CC
T/C (dose: 100.0 mg/kg/injection, schedule: Q04DX003 (ip), vehicle: other): 100 % of control
T/C (dose: 200.0 mg/kg/injection, schedule: Q04DX003 (ip), vehicle: other): 100 % of control
T/C (dose: 400.0 mg/kg/injection, schedule: Q04DX003 (ip), vehicle: other): 95 % of control

O=C(Nc1ccc(Nc2ccccc2)cc1)Nc1cc([N+](=O)[O-])ccc1Cl
T/C [7]: 90 % of control
T/C [8]: 98 % of control
T/C [10]: 103 % of control

COC(C)(C)O/N=C(\C[P+](c1ccccc1)(c1ccccc1)c1ccccc1)c1ccc(Cl)cc1
T/C (dose: 6.25 mg/kg/injection, schedule: Q01DX009 (ip), vehicle: Klucel (hydroxypropylcellulose) (HPC)): 109 % of control
T/C (dose: 12.5 mg/kg/injection, schedule: Q01DX009 (ip), vehicle: Klucel (hydroxypropylcellulose) (HPC)): 106 % of control
T/C (dose: 25.0 mg/kg/injection, schedule: Q01DX009 (ip), vehicle: Klucel (hydroxypropylcellulose) (HPC)): 99 % of control

COc1c(C)cc(Cc2ccc3c(c2)OCO3)cc1C
T/C [1]: 109 % of control
T/C [2]: 109 % of control
T/C [3]: 113 % of control

CCOC(=O)/C(=C/c1ccco1)C(C)=O
T/C (dose: 100.0 mg/kg/injection, schedule: Q01DX009 (ip), vehicle: Klucel (hydroxypropylcellulose) (HPC)): 102 % of control
T/C (dose: 200.0 mg/kg/injection, schedule: Q01DX009 (ip), vehicle: Klucel (hydroxypropylcellulose) (HPC)): 110 % of control

COC(=O)C(CSCSCc1ccccc1)NC(=O)C(CSCc1ccccc1)NC(=O)CCNC(=O)OCc1ccccc1 (stereo unspecified)
T/C (dose: 3.12 mg/kg/injection, schedule: Q04DX003 (ip), vehicle: saline): 114 % of control
T/C (dose: 6.25 mg/kg/injection, schedule: Q04DX003 (ip), vehicle: saline): 100 % of control
T/C (dose: 12.5 mg/kg/injection, schedule: Q04DX003 (ip), vehicle: saline): 98 % of control
T/C (dose: 25.0 mg/kg/injection, schedule: Q04DX003 (ip), vehicle: saline): 112 % of control

O=c1cccc(O)[nH]1
T/C [9]: 109 % of control and 94 % of control
T/C (dose: 100.0 mg/kg/injection, schedule: Q01DX009 (ip), vehicle: saline): 100 % of control and 93 % of control

CCOC(=O)N(NC(=O)c1ccccc1)C(C)=O
T/C (dose: 12.5 mg/kg/injection, schedule: Q01DX009 (ip), vehicle: other): 111 % of control
T/C (dose: 25.0 mg/kg/injection, schedule: Q01DX009 (ip), vehicle: other): 109 % of control
T/C (dose: 50.0 mg/kg/injection, schedule: Q01DX009 (ip), vehicle: other): 99 % of control

CN(C)C(=O)SC1=C(c2c(Cl)cccc2Cl)C(=O)c2ccccc21
T/C [1]: 108 % of control and 112 % of control
T/C [2]: 99 % of control and 112 % of control
T/C [3]: 121 % of control and 122 % of control

Cn1/c(=N\N=C\c2ccccc2OCCO)sc2ccccc21
T/C (dose: 50.0 mg/kg/injection, schedule: Q01DX009 (ip), vehicle: saline + alcohol): 103 % of control
T/C (dose: 100.0 mg/kg/injection, schedule: Q01DX009 (ip), vehicle: saline + alcohol): 100 % of control
T/C (dose: 200.0 mg/kg/injection, schedule: Q01DX009 (ip), vehicle: saline + alcohol): 101 % of control

O=c1nc2n(CC(O)C(O)C(O)C(O)CO)c3cc(Cl)c(Cl)cc3nc-2c(=O)[nH]1 (stereo unspecified)
T/C [4]: 105 % of control
T/C [5]: 111 % of control

CC(O)CN(CCN(CC(C)O)CC(C)O)CC(C)O (stereo unspecified)
T/C (dose: 50.0 mg/kg/injection, schedule: Q01DX005 (ip), vehicle: saline): 105 % of control
T/C (dose: 100.0 mg/kg/injection, schedule: Q01DX005 (ip), vehicle: saline): 103 % of control
T/C (dose: 200.0 mg/kg/injection, schedule: Q01DX005 (ip), vehicle: saline): 103 % of control
